Laboratory results as given in ChEMBL document CHEMBL1177783, “Discovery of aminopyridines substituted with benzoxazole as orally active c-Met kinase inhibitors” (Bioorg Med Chem Lett, 2010).

Columns and labels:
[1] = target: Hepatocyte growth factor receptor (Homo sapiens, UniProt P08581); experiment: Inhibition of recombinant c-MET by HTRF assay
[2] = target: hERG (KCNH2) (Homo sapiens, UniProt Q12809); experiment: Displacement of [3H]astemizole from human ERG expressed in HEK293 cells at 10 uM; conditions: HEK293 cells expressing human ERG, probe [3H]astemizole
[3] = Clearance in rat at 10 mg/kg, iv; type: ADME, organism-based; parameters: dose 10 mg/kg, route intravenous; conditions: in vivo
[4] = Volume of distribution at steady state in rat at 10 mg/kg, iv; type: ADME, organism-based; parameters: dose 10 mg/kg, route intravenous; conditions: in vivo, read-out: Vdss
[5] = AUC in rat at 10 mg/kg, iv; type: ADME, organism-based; parameters: dose 10 mg/kg, route intravenous; conditions: plasma
[6] = AUC in rat at 10 mg/kg, po; type: ADME, organism-based; parameters: dose 10 mg/kg, route oral; conditions: plasma
[7] = Oral bioavailability in rat at 10 mg/kg; type: ADME, organism-based; conditions: in vivo
[8] = Cmax in rat at 10 mg/kg, po; type: ADME, organism-based; parameters: dose 10 mg/kg, route oral; conditions: in vivo

Hepatocyte growth factor receptor, sequence (P08581 whole entry): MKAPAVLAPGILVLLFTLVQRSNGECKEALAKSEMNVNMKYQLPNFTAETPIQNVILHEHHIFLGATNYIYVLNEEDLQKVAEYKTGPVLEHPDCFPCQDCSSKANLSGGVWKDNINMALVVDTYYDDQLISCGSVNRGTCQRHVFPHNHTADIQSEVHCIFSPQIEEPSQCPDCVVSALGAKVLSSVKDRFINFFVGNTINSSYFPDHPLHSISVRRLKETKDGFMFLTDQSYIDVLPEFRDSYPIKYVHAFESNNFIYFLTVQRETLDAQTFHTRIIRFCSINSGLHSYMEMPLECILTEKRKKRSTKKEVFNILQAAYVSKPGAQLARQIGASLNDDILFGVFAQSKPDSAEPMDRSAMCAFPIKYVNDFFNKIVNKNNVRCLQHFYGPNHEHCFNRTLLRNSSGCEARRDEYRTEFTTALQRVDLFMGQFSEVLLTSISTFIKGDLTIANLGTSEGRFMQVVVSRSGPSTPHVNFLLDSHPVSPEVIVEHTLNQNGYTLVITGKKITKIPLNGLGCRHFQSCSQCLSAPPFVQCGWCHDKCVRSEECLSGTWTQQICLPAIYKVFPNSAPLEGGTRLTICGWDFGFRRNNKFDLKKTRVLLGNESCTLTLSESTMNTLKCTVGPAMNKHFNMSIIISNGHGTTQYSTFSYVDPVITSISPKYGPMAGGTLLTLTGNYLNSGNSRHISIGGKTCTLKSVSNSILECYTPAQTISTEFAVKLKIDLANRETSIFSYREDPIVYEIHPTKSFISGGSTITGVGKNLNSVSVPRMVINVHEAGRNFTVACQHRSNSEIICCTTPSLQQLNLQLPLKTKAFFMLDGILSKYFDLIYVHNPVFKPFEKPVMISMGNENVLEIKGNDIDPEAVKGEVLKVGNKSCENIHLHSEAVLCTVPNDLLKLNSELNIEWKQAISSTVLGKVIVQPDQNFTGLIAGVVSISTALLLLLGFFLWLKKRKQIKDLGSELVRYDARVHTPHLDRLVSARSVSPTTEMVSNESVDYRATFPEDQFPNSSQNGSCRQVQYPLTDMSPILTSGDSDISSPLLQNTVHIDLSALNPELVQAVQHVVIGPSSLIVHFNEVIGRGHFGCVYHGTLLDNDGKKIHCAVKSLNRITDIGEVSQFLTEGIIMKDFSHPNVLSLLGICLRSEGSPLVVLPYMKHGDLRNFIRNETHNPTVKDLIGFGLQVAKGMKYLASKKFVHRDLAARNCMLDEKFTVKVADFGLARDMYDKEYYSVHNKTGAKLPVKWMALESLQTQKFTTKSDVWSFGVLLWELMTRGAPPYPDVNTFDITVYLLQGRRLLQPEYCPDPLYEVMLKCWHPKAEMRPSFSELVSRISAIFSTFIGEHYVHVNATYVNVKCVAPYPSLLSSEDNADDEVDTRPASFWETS
hERG (KCNH2), sequence (Q12809 whole entry): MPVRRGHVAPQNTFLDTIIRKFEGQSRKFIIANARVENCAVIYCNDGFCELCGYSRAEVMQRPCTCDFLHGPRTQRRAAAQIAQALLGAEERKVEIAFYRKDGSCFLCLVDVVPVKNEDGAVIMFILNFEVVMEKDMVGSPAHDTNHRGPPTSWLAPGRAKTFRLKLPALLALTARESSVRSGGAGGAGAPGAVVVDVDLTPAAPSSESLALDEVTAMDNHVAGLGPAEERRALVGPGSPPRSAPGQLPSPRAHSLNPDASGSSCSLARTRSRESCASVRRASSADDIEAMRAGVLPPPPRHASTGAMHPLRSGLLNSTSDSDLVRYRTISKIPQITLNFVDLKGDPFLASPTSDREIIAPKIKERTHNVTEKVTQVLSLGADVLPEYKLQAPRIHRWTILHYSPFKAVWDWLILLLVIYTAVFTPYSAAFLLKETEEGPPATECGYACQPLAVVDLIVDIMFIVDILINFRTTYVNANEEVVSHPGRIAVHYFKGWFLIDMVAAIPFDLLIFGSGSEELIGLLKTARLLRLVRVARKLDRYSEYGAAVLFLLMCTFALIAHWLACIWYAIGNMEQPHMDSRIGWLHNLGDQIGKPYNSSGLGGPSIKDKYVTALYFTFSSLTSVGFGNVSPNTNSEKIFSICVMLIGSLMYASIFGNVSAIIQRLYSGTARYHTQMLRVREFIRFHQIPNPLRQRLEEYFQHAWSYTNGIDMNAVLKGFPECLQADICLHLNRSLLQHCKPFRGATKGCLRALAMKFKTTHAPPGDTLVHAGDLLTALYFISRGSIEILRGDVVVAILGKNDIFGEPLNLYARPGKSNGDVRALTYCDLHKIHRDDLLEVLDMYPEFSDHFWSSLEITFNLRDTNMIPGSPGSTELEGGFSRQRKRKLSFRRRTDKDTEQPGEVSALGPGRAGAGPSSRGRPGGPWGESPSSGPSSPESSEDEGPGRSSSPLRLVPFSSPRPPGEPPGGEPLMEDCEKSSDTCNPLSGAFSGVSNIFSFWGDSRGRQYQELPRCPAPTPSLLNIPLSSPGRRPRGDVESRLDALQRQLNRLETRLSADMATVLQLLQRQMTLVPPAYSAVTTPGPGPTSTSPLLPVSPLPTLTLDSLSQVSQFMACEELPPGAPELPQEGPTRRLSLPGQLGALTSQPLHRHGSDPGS

Compound | IC50 [1] | other results
CCC(=O)N1CCC(n2cc(-c3cnc(N)c(-c4nc5ccccc5o4)c3)cn2)CC1 | 7 nM | 
COC(=O)N1CCC(n2cc(-c3cnc(N)c(-c4nc5ccccc5o4)c3)cn2)CC1 | 58 nM | 
Nc1ncc(-c2cnn(C3CCNCC3)c2)cc1-c1nc2ccccc2o1 | 80 nM | 
Nc1ncc(-c2ccncc2)cc1-c1nc2ccccc2o1 | 5200 nM | 
CS(=O)(=O)N1CCC(n2cc(-c3cnc(N)c(-c4nc5ccccc5o4)c3)cn2)CC1 | 371 nM | 
Nc1ncc(-c2cccnc2)cc1-c1nc2ccccc2o1 | > 10000 nM | 
CNc1ncc(-c2cnn(C3CCNCC3)c2)cc1-c1nc2ccccc2o1 | > 10000 nM | 
COCC(=O)N1CCC(n2cc(-c3cnc(N)c(-c4nc5ccccc5o4)c3)cn2)CC1 | 17 nM | 
CNc1ncc(-c2cnn(C)c2)cc1-c1nc2ccccc2o1 | > 10000 nM | 
Cn1cc(-c2cnc(NCc3ccccc3)c(-c3nc4ccccc4o3)c2)cn1 | > 10000 nM | 
Nc1ncc(-c2cnn(C3CCOCC3)c2)cc1-c1nc2ccccc2o1 | 430 nM | 
Cn1cc(-c2cnc(N)c(-c3nc4ccccc4o3)c2)cn1 | 2100 nM | inhibition at 10 µM [2]: 15%
Nc1ncc(-c2ccccc2)cc1-c1nc2ccccc2o1 | > 10000 nM | 
CC(=O)N1CCC(n2cc(-c3cnc(N)c(-c4nc5ccccc5o4)c3)cn2)CC1.Cl | 3 nM | clearance [3]: 30 mL/min/kg; Vd [4]: 2.4 L/kg; AUC [5]: 5600 ng·h/mL; AUC [6]: 2700 ng·h/mL; bioavailability [7]: 47%; Cmax [8]: 600 ng/mL
Nc1ncc(-c2cnn(C3CCN(C(=O)CO)CC3)c2)cc1-c1nc2ccccc2o1 | 26 nM | 
Cn1cc(-c2cncc(-c3nc4ccccc4o3)c2)cn1 | > 10000 nM | 
c1ccc2oc(-c3cncc(-c4cnn(C5CCNCC5)c4)c3)nc2c1 | > 10000 nM | 
CN(C)CC(=O)N1CCC(n2cc(-c3cnc(N)c(-c4nc5ccccc5o4)c3)cn2)CC1 | 60 nM | 
CCN(CC)C(=O)N1CCC(n2cc(-c3cnc(N)c(-c4nc5ccccc5o4)c3)cn2)CC1 | 357 nM | 
Nc1ncc(-c2cnn(CCO)c2)cc1-c1nc2ccccc2o1 | 1300 nM | 
Nc1ncc(-c2cnn(C3CCN(C(=O)c4ccccc4)CC3)c2)cc1-c1nc2ccccc2o1 | 140 nM | 
